According to US6525001B1, “Substituted pyrimidine and pyridine herbicides” (Mid-American Commercialization Corporation, priority 1997, dated 2003):

Experiments:
Type in all cases: in vivo
[1] = system: large crabgrass (Digitaria sanguinalis); test: Test E pre-/postemergence/post directed
From the text: (§1) Seeds, tubers, or plant parts of alexandergrass (Brachiaria plantaginea), annual bluegrass (Poa annua), arrowleaf sida (Sida rhombifolia), barnyardgrass (Echinochloa crus-galli), bermudagrass (Cynodon dactylon), citrus (Citrus sinensis), common chickweed (Stellaria media), common purslane (Portulaca oleracea), common ragweed (Ambrosia elatior), common groundsel (Senecio vulgaris), dallisgrass (Paspalum dilatatum), goosegrass (Eleusine indica), green foxtail (Setaria viridis), guineagrass (Panicum maximum), itchgrass (Rottboellia exaltata), johnson grass (Sorghum halepense), kochia (Kochia scoparia), large crabgrass (Digitaria sanguinalis), leafy spurge (Euphorbia esula), pitted morningglory (Ipomoea lacunosa), purple nutsedge (Cyperus rotundus), quackgrass (Agropyron repens), Russian thistle (Salsola kali), sandbur (Cenchrus echinatus), sourgrass (Trichachne insularis), Spanishneedles (Bidens bipinnata), sugarcane (Saccharum officinarum), surinam grass (Brachiaria decumbens) and tall mallow (Malva sylvestris) were planted into greenhouse pots of flats containing greenhouse planting medium. Plant species were grown grown in separate pots or individual compartments. Preemergence applications were made within one day of planting the seed or plant part. Postemergence applications were applied when the plants were in the two to four leaf stage (three to twenty cm).
(§2) Test chemicals were formulated in a non-phytotoxic solvent mixture which included a surfactant and applied preemergence to the soil surface, postemergence to the plants or as a post directed spray to plants and soil at the base of the target species. Untreated control plants and treated plants were placed in the greenhouse and visually evaluated for injury 13 to 21 days after herbicide application. Plant response ratings, summarized in Table E, are based on a 0 to 100 scale where 0 is no injury and 100 is complete control. A dash (−) response means no test result.

[2] = system: bermudagrass (Cynodon dactylon); test: Test E pre-/postemergence/post directed
From the text: as §1, §2

[3] = system: johnson grass (Sorghum halepense); test: Test E pre-/postemergence/post directed
From the text: as §1, §2

[4] = system: common ragweed (Ambrosia elatior); test: Test E pre-/postemergence/post directed
From the text: as §1, §2

[5] = system: alexandergrass (Brachiaria plantaginea); test: Test E pre-/postemergence/post directed
From the text: as §1, §2

[6] = system: sandbur (Cenchrus echinatus); test: Test E pre-/postemergence/post directed
From the text: as §1, §2

[7] = system: Spanishneedles (Bidens bipinnata); test: Test E pre-/postemergence/post directed
From the text: as §1, §2

[8] = system: large crabgrass (Digitaria sanguinalis); test: Test E pre-/postemergence/post directed; design: key: 0 is no effect; 100 is complete control; settings: PREEMERGENCE
In short: (§3)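 Greenhouse pots; compound in non-phytotoxic solvent with surfactant, sprayed preemergence within one day of planting, postemergence at two to four leaf stage (three to twenty cm), or post directed to plant base and soil. Visual injury rated 13 to 21 days after application, 0 (none) to 100 (complete control).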

[9] = system: goosegrass (Eleusine indica); test: Test E pre-/postemergence/post directed; design: key: 0 is no effect; 100 is complete control
In short: as §3

[10] = system: bermudagrass (Cynodon dactylon); test: Test E pre-/postemergence/post directed; design: key: 0 is no effect; 100 is complete control; settings: PREEMERGENCE
In short: as §3

[11] = system: surinam grass (Brachiaria decumbens); test: Test E pre-/postemergence/post directed; design: key: 0 is no effect; 100 is complete control; settings: PREEMERGENCE, Rate 250 g/ha
In short: as §3

[12] = system: sourgrass (Trichachne insularis); test: Test E pre-/postemergence/post directed; design: key: 0 is no effect; 100 is complete control
In short: as §3

[13] = system: common ragweed (Ambrosia elatior); test: Test E pre-/postemergence/post directed; design: key: 0 is no effect; 100 is complete control; settings: PREEMERGENCE
In short: as §3

[14] = system: common groundsel (Senecio vulgaris); test: Test E pre-/postemergence/post directed; design: key: 0 is no effect; 100 is complete control
In short: as §3

[15] = system: purple nutsedge (Cyperus rotundus); test: Test E pre-/postemergence/post directed; design: key: 0 is no injury; 100 is complete control
From the text: as §1, §2

[16] = system: hairy beggarticks (Bidens pilosa); test: Test C; design: key: 0 was no effect; 100 was complete control; settings: PREEMERGENCE
[17] = system: cocklebur (Xanthium strumarium); test: Test C; design: key: 0 was no effect; 100 was complete control; settings: PREEMERGENCE
[18] = system: sandbur (Cenchrus echinatus); test: Test E pre-/postemergence/post directed; design: key: 0 is no injury; 100 is complete control; settings: PREEMERGENCE, Rate 32 g/ha
From the text: as §1, §2

[19] = system: wild poinsettia (Euphorbia heterophylla); test: Test C; design: key: 0 was no effect; 100 was complete control; settings: PREEMERGENCE
soybean (Glycine max) = test: Test C; design: key: 0 was no effect; 100 was complete control; settings: PREEMERGENCE

## Cc1cnc(-n2cnc(C(F)(F)F)n2)nc1C(=O)c1cccc(C(F)(F)F)c1 [Compound 67]
[1]; PREEMERGENCE, Rate 32 g/ha
  Plant response rating, Large crabgrass: 90
[1]; PREEMERGENCE, Rate 64 g/ha
  Plant response rating, Large crabgrass: 95
[1]; PREEMERGENCE, Rate 125 g/ha
  Plant response rating, Large crabgrass: 98
[2]; PREEMERGENCE, Rate 32 g/ha
  Plant response rating, Bermudagrass: 70
[2]; PREEMERGENCE, Rate 64 g/ha
  Plant response rating, Bermudagrass: 90
[2]; PREEMERGENCE, Rate 125 g/ha
  Plant response rating, Bermudagrass: 90
[3]; PREEMERGENCE, Rate 32 g/ha
  Plant response rating, Johnsongrass: 35
[3]; PREEMERGENCE, Rate 64 g/ha
  Plant response rating, Johnsongrass: 35
[3]; PREEMERGENCE, Rate 125 g/ha
  Plant response rating, Johnsongrass: 50
[3]; PREEMERGENCE, Rate 250 g/ha
  Plant response rating, Johnsongrass: 80
[4]; PREEMERGENCE, Rate 32 g/ha
  Plant response rating, Com. ragweed: 90
[4]; PREEMERGENCE, Rate 64 g/ha
  Plant response rating, Com. ragweed: 95
[5]; PREEMERGENCE, Rate 32 g/ha
  Plant response rating, Alexandergrass: 25
[5]; PREEMERGENCE, Rate 64 g/ha
  Plant response rating, Alexandergrass: 40
[5]; PREEMERGENCE, Rate 125 g/ha
  Plant response rating, Alexandergrass: 70
[5]; PREEMERGENCE, Rate 250 g/ha
  Plant response rating, Alexandergrass: 95
[6]; PREEMERGENCE, Rate 32 g/ha
  Plant response rating, Sandbur: 60
[6]; PREEMERGENCE, Rate 64 g/ha
  Plant response rating, Sandbur: 60
[6]; PREEMERGENCE, Rate 125 g/ha
  Plant response rating, Sandbur: 65
[6]; PREEMERGENCE, Rate 250 g/ha
  Plant response rating, Sandbur: 75
[7]; PREEMERGENCE, Rate 125 g/ha
  Plant response rating, Spanishneedles: 50
[7]; PREEMERGENCE, Rate 250 g/ha
  Plant response rating, Spanishneedles: 50
[8]; Rate 250 g/ha
  Plant response rating, Large crabgrass: 100
[9]; PREEMERGENCE, Rate 32 g/ha
  Plant response rating, Goosegrass: 80
[9]; PREEMERGENCE, Rate 64 g/ha
  Plant response rating, Goosegrass: 90
[9]; PREEMERGENCE, Rate 125 g/ha
  Plant response rating, Goosegrass: 100
[9]; PREEMERGENCE, Rate 250 g/ha
  Plant response rating, Goosegrass: 100
[10]; Rate 250 g/ha
  Plant response rating, Bermudagrass: 100
[11]
  Plant response rating, Surinam grass: 100
[12]; PREEMERGENCE, Rate 32 g/ha
  Plant response rating, Sourgrass: 98
[12]; PREEMERGENCE, Rate 64 g/ha
  Plant response rating, Sourgrass: 100
[12]; PREEMERGENCE, Rate 125 g/ha
  Plant response rating, Sourgrass: 100
[12]; PREEMERGENCE, Rate 250 g/ha
  Plant response rating, Sourgrass: 100
[13]; Rate 125 g/ha
  Plant response rating, Com. ragweed: 100
[13]; Rate 250 g/ha
  Plant response rating, Com. ragweed: 100
[14]; PREEMERGENCE, Rate 250 g/ha
  Plant response rating, Com. groundsel: 100
[15]; PREEMERGENCE, Rate 32 g/ha
  Plant response rating, Purple nutsedge: 0
[15]; PREEMERGENCE, Rate 64 g/ha
  Plant response rating, Purple nutsedge: 5
[15]; PREEMERGENCE, Rate 125 g/ha
  Plant response rating, Purple nutsedge: 5
[15]; PREEMERGENCE, Rate 250 g/ha
  Plant response rating, Purple nutsedge: 10

## Cc1cnc(-n2ccc(C(F)(F)F)n2)nc1Cn1ccc(C(F)(F)F)n1 [Compound 52]
[16]; Rate 35 g/ha
  Plant response rating, H. beggarticks: 0
[16]; Rate 70 g/ha
  Plant response rating, H. beggarticks: 0
[16]; Rate 140 g/ha
  Plant response rating, H. beggarticks: 30
[17]; Rate 70 g/ha
  Plant response rating, Cocklebur: 0
[17]; Rate 140 g/ha
  Plant response rating, Cocklebur: 20
[1]; POSTEMERGENCE, Rate 125 g/ha
  Plant response rating, Large crabgrass: 5
[1]; POSTEMERGENCE, Rate 250 g/ha
  Plant response rating, Large crabgrass: 80
[1]; PREEMERGENCE, Rate 32 g/ha
  Plant response rating, Large crabgrass: 98
[2]; POSTEMERGENCE, Rate 125 g/ha
  Plant response rating, Bermudagrass: 35
[2]; POSTEMERGENCE, Rate 250 g/ha
  Plant response rating, Bermudagrass: 35
[2]; PREEMERGENCE, Rate 32 g/ha
  Plant response rating, Bermudagrass: 70
[2]; PREEMERGENCE, Rate 64 g/ha
  Plant response rating, Bermudagrass: 90
[3]; POSTEMERGENCE, Rate 125 g/ha
  Plant response rating, Johnsongrass: 35
[3]; POSTEMERGENCE, Rate 250 g/ha
  Plant response rating, Johnsongrass: 20
[3]; PREEMERGENCE, Rate 64 g/ha
  Plant response rating, Johnsongrass: 50
[3]; PREEMERGENCE, Rate 125 g/ha
  Plant response rating, Johnsongrass: 75
[4]; POSTEMERGENCE, Rate 125 g/ha
  Plant response rating, Com. ragweed: 50
[4]; POSTEMERGENCE, Rate 250 g/ha
  Plant response rating, Com. ragweed: 80
[4]; PREEMERGENCE, Rate 32 g/ha
  Plant response rating, Com. ragweed: 35
[4]; PREEMERGENCE, Rate 64 g/ha
  Plant response rating, Com. ragweed: 80
[5]; POSTEMERGENCE, Rate 125 g/ha
  Plant response rating, Alexandergrass: 10
[5]; POSTEMERGENCE, Rate 250 g/ha
  Plant response rating, Alexandergrass: 75
[5]; PREEMERGENCE, Rate 32 g/ha
  Plant response rating, Alexandergrass: 20
[5]; PREEMERGENCE, Rate 64 g/ha
  Plant response rating, Alexandergrass: 75
[5]; PREEMERGENCE, Rate 125 g/ha
  Plant response rating, Alexandergrass: 75
[6]; POSTEMERGENCE, Rate 125 g/ha
  Plant response rating, Sandbur: 5
[6]; POSTEMERGENCE, Rate 250 g/ha
  Plant response rating, Sandbur: 60
[6]; PREEMERGENCE, Rate 64 g/ha
  Plant response rating, Sandbur: 10
[6]; PREEMERGENCE, Rate 125 g/ha
  Plant response rating, Sandbur: 50
[7]; POSTEMERGENCE, Rate 125 g/ha
  Plant response rating, Spanishneedles: 65
[7]; POSTEMERGENCE, Rate 250 g/ha
  Plant response rating, Spanishneedles: 60
[7]; PREEMERGENCE, Rate 32 g/ha
  Plant response rating, Spanishneedles: 20
[7]; PREEMERGENCE, Rate 64 g/ha
  Plant response rating, Spanishneedles: 20
[7]; PREEMERGENCE, Rate 125 g/ha
  Plant response rating, Spanishneedles: 35
[8]; Rate 64 g/ha
  Plant response rating, Large crabgrass: 100
[8]; Rate 125 g/ha
  Plant response rating, Large crabgrass: 100
[9]; POSTEMERGENCE, Rate 125 g/ha
  Plant response rating, Goosegrass: 5
[9]; POSTEMERGENCE, Rate 250 g/ha
  Plant response rating, Goosegrass: 75
[9]; PREEMERGENCE, Rate 32 g/ha
  Plant response rating, Goosegrass: 20
[9]; PREEMERGENCE, Rate 64 g/ha
  Plant response rating, Goosegrass: 100
[9]; PREEMERGENCE, Rate 125 g/ha
  Plant response rating, Goosegrass: 100
[10]; Rate 125 g/ha
  Plant response rating, Bermudagrass: 100
[12]; POSTEMERGENCE, Rate 125 g/ha
  Plant response rating, Sourgrass: 10
[12]; POSTEMERGENCE, Rate 250 g/ha
  Plant response rating, Sourgrass: 50
[12]; PREEMERGENCE, Rate 32 g/ha
  Plant response rating, Sourgrass: 95
[12]; PREEMERGENCE, Rate 64 g/ha
  Plant response rating, Sourgrass: 100
[12]; PREEMERGENCE, Rate 125 g/ha
  Plant response rating, Sourgrass: 100
[13]; Rate 125 g/ha
  Plant response rating, Com. ragweed: 100
[14]; POSTEMERGENCE, Rate 125 g/ha
  Plant response rating, Com. groundsel: 100
[14]; POSTEMERGENCE, Rate 250 g/ha
  Plant response rating, Com. groundsel: 100
[14]; PREEMERGENCE, Rate 125 g/ha
  Plant response rating, Com. groundsel: 100
[15]; POSTEMERGENCE, Rate 125 g/ha
  Plant response rating, Purple nutsedge: 40
[15]; POSTEMERGENCE, Rate 250 g/ha
  Plant response rating, Purple nutsedge: 50
[15]; PREEMERGENCE, Rate 32 g/ha
  Plant response rating, Purple nutsedge: 5
[15]; PREEMERGENCE, Rate 64 g/ha
  Plant response rating, Purple nutsedge: 30
[15]; PREEMERGENCE, Rate 125 g/ha
  Plant response rating, Purple nutsedge: 50
[18]
  Plant response rating, Sandbur: 0
[19]; Rate 70 g/ha
  Plant response rating, Wild poinsettia: 40
[19]; Rate 140 g/ha
  Plant response rating, Wild poinsettia: 100
Soybean (Glycine max); Rate 35 g/ha
  Plant response rating, Soybean: 0
Soybean (Glycine max); Rate 70 g/ha
  Plant response rating, Soybean: 55
Soybean (Glycine max); Rate 140 g/ha
  Plant response rating, Soybean: 70
